Measurements as given in US12559492B2, “BRAF degraders” (C4 Therapeutics, Inc., priority 2020, dated 2026).

Target: BRAF^V600E protein (Homo sapiens, UniProt P15056, V600E)
Assay: HiBiT cellular BRAF V600E degradation assay
Format: cell-based
Conditions: 24 h incubation; for DC50: A375.10 cells (HiBiT tag knocked in at N-terminal of BRAF V600E), concentration at which 50% of total cellular BRAF V600E is degraded; for Emax: A375.10 cells, Emax = amount of residual protein remaining in the cell after compound treatment, read-out: HiBit 24 h Emax
Excerpt: DMEM no-phenol red medium supplemented with L-glutamine was purchased from (Corning). Fetal bovine serum (FBS) was purchased from Gibco (Grand Island, NY, USA). Nano-Glo® HiBiT Lytic Assay Buffer & Reagents were purchased from Promega (Madison, WI, USA). […] Cell culture flasks and 384-well black flat-bottom polystyrene TC-treated microplates were acquired from Corning (Corning, NY, USA).
HiBiT Cellular BRAFv^600E Degradation Assay
Prior to the assay, the A375.10 cell line is maintained in DMEM no-phenol red medium supplemented with 10% fetal bovine serum (FBS). […] Briefly, test compounds were added to the 384-well plate from a top concentration of 10 μM with 11 half log dilutions of compound, plated in duplicate. Then, 30 uL of a suspension of A375.10 cell lines was dispensed into columns 1-24 of the 384-well plates at a cell density of 7500 cells per well. The plates were kept at 37° C. with 5% CO2 for the duration of the assay (6 or 24 hr). After the desired incubation time with compound, 30 uL of Nano-Glo® HiBiT Lytic Buffer containing LgBiT protein (diluted 1:100) and luminescence substrate (diluted 1:50) were added to the cells in columns 1-23 of the assay plate. The plate was the incubated for 30 min on the bench at room temperature. Finally, HiBiT luminescence signal was acquired on EnVision™ Multilabel Reader (PerkinElmer, Santa Clara, CA, USA).
Quantification of luminescence responses measured in the presence of compound were normalized to a high signal/no degradation control (untreated cells+lytic detection reagent) and a low signal/full degradation control (untreated cells, no lytic detection reagent). Data were analyzed with a 4-parameter logistic fit to generate sigmoidal dose-response curves. […] The Emax, or maximum effect of each compound, represents the amount of residual protein remaining in the cell following compound treatment.

Chain of BRAF^V600E protein (P15056 whole entry V600E): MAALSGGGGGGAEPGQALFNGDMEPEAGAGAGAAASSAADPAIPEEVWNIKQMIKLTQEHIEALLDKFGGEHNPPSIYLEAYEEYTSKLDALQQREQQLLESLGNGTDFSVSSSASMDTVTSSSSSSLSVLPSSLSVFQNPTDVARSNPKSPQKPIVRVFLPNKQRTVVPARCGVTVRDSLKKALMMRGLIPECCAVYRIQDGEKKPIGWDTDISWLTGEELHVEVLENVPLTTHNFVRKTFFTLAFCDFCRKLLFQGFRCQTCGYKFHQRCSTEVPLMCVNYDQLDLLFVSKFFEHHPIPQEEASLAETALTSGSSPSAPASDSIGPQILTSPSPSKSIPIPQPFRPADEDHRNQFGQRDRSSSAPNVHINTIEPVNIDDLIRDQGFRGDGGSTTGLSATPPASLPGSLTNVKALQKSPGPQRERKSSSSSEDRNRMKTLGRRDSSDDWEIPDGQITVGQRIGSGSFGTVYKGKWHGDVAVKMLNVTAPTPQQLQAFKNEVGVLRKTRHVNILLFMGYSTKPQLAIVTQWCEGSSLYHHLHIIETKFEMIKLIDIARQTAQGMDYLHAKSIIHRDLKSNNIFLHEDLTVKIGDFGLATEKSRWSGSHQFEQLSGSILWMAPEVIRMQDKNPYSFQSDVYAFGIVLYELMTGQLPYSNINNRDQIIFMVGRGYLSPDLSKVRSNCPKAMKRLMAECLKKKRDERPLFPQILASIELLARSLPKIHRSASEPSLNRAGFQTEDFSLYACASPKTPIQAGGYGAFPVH

DC50 [nM] | Emax [%] | SMILES
17 | 11 | CCN(C)S(=O)(=O)Nc1ccc(F)c(C(=O)c2c[nH]c3ncc(-c4ccc(C5CCN(C(=O)CN6CCC(c7ccc(NC8CCC(=O)NC8=O)cc7)CC6)CC5)nc4)cc23)c1F (centres unmarked) [Example A49, 5-[6-[1-[2-[4-[4-[(2,6-Dioxopiperidin-3-yl)amino]phenyl]piperidin-1-yl]acetyl]piperidin-4-yl]pyridin-3-yl]-3-[3-[[ethyl(methyl)sulfamoyl]amino]-2,6-difluorobenzoyl]-1H-pyrrolo[2,3-b]pyridine]
166 | 19 | CCN(C)S(=O)(=O)Nc1ccc(F)c(C(=O)c2c[nH]c3ncc(-c4ccc(CN5CCN(C(=O)CCCN6CCC(c7ccc(NC8CCC(=O)NC8=O)cc7)CC6)CC5)cc4)cc23)c1F (centres unmarked) [Example A26, 5-[4-[[4-[4-[4-[4-[(2,6-Dioxopiperidin-3-yl)amino]phenyl]piperidin-1-yl]butanoyl]piperazin-1-yl]methyl]phenyl]-3-[3-[[ethyl(methyl)sulfamoyl]amino]-2,6-difluorobenzoyl]-1H-pyrrolo[2,3-b]pyridine; 2,2,2-trifluoroacetic acid]
29 | 11 | O=C1CCC(c2ccc(C3CCN(CC(=O)N4CC5(C4)CN(c4ncc(-c6cnc7[nH]cc(C(=O)c8c(F)ccc(NS(=O)(=O)N9CCCC9)c8F)c7c6)cn4)C5)CC3)cc2)C(=O)N1 (centres unmarked) [Example A118, N-[3-[5-[2-[2-[2-[4-[4-(2,6-Dioxopiperidin-3-yl)phenyl]piperidin-1-yl]acetyl]-2,6-diazaspiro[3.3]heptan-6-yl]pyrimidin-5-yl]-1H-pyrrolo[2,3-b]pyridine-3-carbonyl]-2,4-difluorophenyl]pyrrolidine-1-sulfonamide]
10.4 | 9.52 | CCN(C)S(=O)(=O)Nc1ccc(F)c(C(=O)c2c[nH]c3ncc(-c4ccc(C5CCN(C(=O)CN6CCC(c7ccc(NC8CCC(=O)NC8=O)cc7)CC6)CC5)cc4)cc23)c1F (centres unmarked) [Example A44, 5-[4-[1-[2-[4-[4-[(2,6-Dioxopiperidin-3-yl)amino]phenyl]piperidin-1-yl]acetyl]piperidin-4-yl]phenyl]-3-[3-[[ethyl(methyl)sulfamoyl]amino]-2,6-difluorobenzoyl]-1H-pyrrolo[2,3-b]pyridine]
60 | 13 | CCN(C)S(=O)(=O)Nc1ccc(F)c(C(=O)c2c[nH]c3ncc(-c4cnc(N5CCC(NC(=O)CN6CCC(c7ccc(OC8CCC(=O)NC8=O)cc7)CC6)CC5)nc4)cc23)c1F (centres unmarked) [Example A59, 2-[4-[4-(2,6-Dioxopiperidin-3-yl)oxyphenyl]piperidin-1-yl]-N-[1-[5-[3-[3-[[ethyl(methyl)sulfamoyl]amino]-2,6-difluorobenzoyl]-1H-pyrrolo[2,3-b]pyridin-5-yl]pyrimidin-2-yl]piperidin-4-yl]acetamide;formic acid]
204 | 15 | O=C1CCC(Oc2ccc(C3CCN(CC(=O)N4CC5(C4)CN(c4ccc(-c6cnc7[nH]cc(C(=O)c8c(F)ccc(NS(=O)(=O)N9CC[C@@H](F)C9)c8F)c7c6)cn4)C5)CC3)cc2)C(=O)N1 (stereo partly drawn) [Example A115, (3R)—N-[3-[5-[6-[2-[2-[4-[4-(2,6-dioxopiperidin-3-yl)oxyphenyl]piperidin-1-yl]acetyl]-2,6-diazaspiro[3.3]heptan-6-yl]pyridin-3-yl]-1H-pyrrolo[2,3-b]pyridine-3-carbonyl]-2,4-difluorophenyl]-3-fluoropyrrolidine-1-sulfonamide]
43 | 13 | CCN(C)S(=O)(=O)Nc1ccc(F)c(C(=O)c2c[nH]c3ncc(-c4cnc(N5CCC(NC(=O)CN6CCC(c7ccc(NC8CCC(=O)NC8=O)cn7)CC6)CC5)nc4)cc23)c1F (centres unmarked) [Example A58, 2-[4-[5-[(2,6-dioxopiperidin-3-yl)amino]pyridin-2-yl]piperidin-1-yl]-N-[1-[5-[3-[3-[[ethyl(methyl)sulfamoyl]amino]-2,6-difluorobenzoyl]-1H-pyrrolo[2,3-b]pyridin-5-yl]pyrimidin-2-yl]piperidin-4-yl]acetamide; formic acid]
4 | 6 | CCN(C)S(=O)(=O)Nc1ccc(F)c(C(=O)c2c[nH]c3ncc(-c4cnc(N5CCN(C(=O)CN6CCC(c7ccc(N[C@@H]8CCC(=O)NC8=O)cc7)CC6)CC5)nc4)cc23)c1F (single isomer, unassigned) [Example A103]
31 | 20 | CCN(C)S(=O)(=O)Nc1ccc(F)c(C(=O)c2c[nH]c3ncc(-c4cnc(N5CCC(N(C)CC(=O)N6CCC(c7ccc(NC8CCC(=O)NC8=O)cn7)CC6)CC5)nc4)cc23)c1F (centres unmarked) [Example A90, 5-[2-[4-[[2-[4-[5-[(2,6-Dioxopiperidin-3-yl)amino]pyridin-2-yl]piperidin-1-yl]-2-oxoethyl]-methylamino]piperidin-1-yl]pyrimidin-5-yl]-3-[3-[[ethyl(methyl)sulfamoyl]amino]-2,6-difluorobenzoyl]-1H-pyrrolo[2,3-b]pyridine;formic acid]

Continued, compound first:

SMILES | DC50 [nM] | Emax [%]
CCN(C)S(=O)(=O)Nc1ccc(F)c(C(=O)c2c[nH]c3ncc(-c4cnc(N5CCN(C(=O)CN6CCC(c7ccc(NC8CCC(=O)NC8=O)cc7)CC6)CC5)nc4)cc23)c1Cl (centres unmarked) [Example 121, 3-[2-chloro-3-[[ethyl(methyl)sulfamoyl]amino]-6-fluoro-benzoyl]-5-[2-[4-[2-[4-[4-[(2,6-dioxo-3-piperidyl)amino]phenyl]-1-piperidyl]acetyl]piperazin-1-yl]pyrimidin-5-yl]-1H-pyrrolo[2,3-b]pyridine] | 2.3 | 4.98
CCCS(=O)(=O)Nc1ccc(F)c(C(=O)c2c[nH]c3ncc(-c4cnc(N5CCN(C(=O)CN6CCC(c7ccc(NC8CCC(=O)NC8=O)cc7)CC6)CC5)nc4)cc23)c1F (centres unmarked) [Example 1, N-[3-[5-[2-[4-[2-[4-[4-[(2,6-dioxo-3-piperidyl)amino]phenyl]-1-piperidyl]acetyl]piperazin-1-yl]pyrimidin-5-yl]-1H-pyrrolo[2,3-b]pyridine-3-carbonyl]-2,4-difluoro-phenyl]propane-1-sulfonamide] | 0.79 | 7.81
CC(C)S(=O)(=O)Nc1ccc(F)c(C(=O)c2c[nH]c3ncc(-c4ccc(N5CCN(C(=O)CN6CCC(c7ccc(C8CCC(=O)NC8=O)cc7)CC6)CC5)nc4)cc23)c1F (centres unmarked) [Example 14, N-[3-[5-[6-[4-[2-[4-[4-(2,6-dioxo-3-piperidyl)phenyl]-1-piperidyl]acetyl]piperazin-1-yl]-3-pyridyl]-1H-pyrrolo[2,3-b]pyridine-3-carbonyl]-2,4-difluoro-phenyl]propane-2-sulfonamide] | 8.56 | 3.41
CCN(C)S(=O)(=O)Nc1ccc(F)c(C(=O)c2c[nH]c3ncc(-c4cnc(N5CCN(C(=O)CN6CCC(c7ccc(N[C@@H]8CCC(=O)NC8=O)cc7)CC6)CC5)nc4)cc23)c1F [Example 26, 5-[2-[4-[2-[4-[4-[[(3R)-2,6-dioxo-3-piperidyl]amino]phenyl]-1-piperidyl]acetyl]piperazin-1-yl]pyrimidin-5-yl]-3-[3-[[ethyl(methyl)sulfamoyl]amino]-2,6-difluoro-benzoyl]-1H-pyrrolo[2,3-b]pyridine] | 4.55 | 7
CCN(C)S(=O)(=O)Nc1cccc(C(=O)c2c[nH]c3ncc(-c4cnc(N5CCN(C(=O)CN6CCC(c7ccc(NC8CCC(=O)NC8=O)cc7F)CC6)CC5)nc4)cc23)c1F (centres unmarked) [Example 97, 5-[2-[4-[2-[4-[4-[(2,6-dioxo-3-piperidyl)amino]-2-fluoro-phenyl]-1-piperidyl]acetyl]piperazin-1-yl]pyrimidin-5-yl]-3-[3-[[ethyl(methyl)sulfamoyl]amino]-2-fluoro-benzoyl]-1H-pyrrolo[2,3-b]pyridine] | 6.62 | 7.94
CCN(C)S(=O)(=O)Nc1ccc(F)c(C(=O)c2c[nH]c3ncc(-c4cnc(N5CCN(C(=O)CC6CCN(c7ccc(NC8CCC(=O)NC8=O)cc7F)CC6)CC5)nc4)cc23)c1F (centres unmarked) [Example 42, 5-[2-[4-[2-[1-[4-[(2,6-dioxo-3-piperidyl)amino]-2-fluoro-phenyl]-4-piperidyl]acetyl]piperazin-1-yl]pyrimidin-5-yl]-3-[3-[[ethyl(methyl)sulfamoyl]amino]-2,6-difluoro-benzoyl]-1H-pyrrolo[2,3-b]pyridine] | 3.41 | 11.5
CCN(C)S(=O)(=O)Nc1ccc(F)c(C(=O)c2c[nH]c3ncc(-c4cnc(N5CCN(C(=O)CN6CCC(N7CCN(C8CCC(=O)NC8=O)C(=O)C7)C(F)(F)C6)CC5)nc4)cc23)c1F (centres unmarked) [Example 173, 5-[2-[4-[2-[4-[4-(2,6-dioxo-3-piperidyl)-3-oxo-piperazin-1-yl]-3,3-difluoro-1-piperidyl]acetyl]piperazin-1-yl]pyrimidin-5-yl]-3-[3-[[ethyl(methyl)sulfamoyl]amino]-2,6-difluoro-benzoyl]-1H-pyrrolo[2,3-b]pyridine] | 6.37 | 7.19
